Where a name gives a salt, the structure may show the parent alone. Read-outs that look alike come from different tables or passages of the source.
System: Acinetobacter baumannii ATCC17961
Experiment: Antimicrobial susceptibility testing: 90% growth inhibitory concentration (IC90) determination in Iso-Sensitest broth, OD600 growth
Type: cell-based
Details: Acinetobacter baumannii, ATCC17961, 16 h
Method in brief: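 Serial twofold dilution, 10 points, e.g. 50–0.097 μM final; ~5×10^(5) CFU/ml; 35±2° C, 16 h; kinetic OD600 every 20 min; IC90 from log-phase inhibition.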

[1] = strain ATCC 17961, OD600 growth over 16 h, read-out: A. baumannii ATCC 17961 IC90
[2] = read-out: A. baumannii ATCC 17961 IC90 (uM), strain ATCC 17961, OD600 growth over 16 h

With CCc1cc(Nc2nccn3c(-c4cn(CC(F)F)nc4C(F)F)cnc23)ccc1C(=O)N[C@H]1C[C@@H](N)C1 [Example 539, N-((1s,3s)-3-aminocyclobutyl)-4-((3-(1-(2,2-difluoroethyl)-3-(difluoromethyl)-1H-pyrazol-4-yl)imidazo[1,2-a]pyrazin-8-yl)amino)-2-ethylbenzamide] the IC90 [1] was 0.461 µM.
Work on CCc1cc(Nc2nccn3c(-c4cn(CC#N)nc4C(F)(F)F)cnc23)ccc1C(=O)NCCNC(=O)CCCN [Example 540, N-(2-(4-aminobutanamido)ethyl)-4-((3-(1-(cyanomethyl)-3-(trifluoromethyl)-1H-pyrazol-4-yl)imidazo[1,2-a]pyrazin-8-yl)amino)-2-ethylbenzamide formate] yielded an IC90 [2] of 0.249 µM.
Molecule CCc1cc(Nc2nccn3c(-c4cn(CC(F)F)nc4C(F)(F)F)cnc23)ccc1C(=O)NCCCNC(=O)[C@H]1C[C@@H](N)C1 [Example 541, N-(3-((1s,3s)-3-aminocyclobutane-1-carboxamido)propyl)-4-((3-(1-(2,2-difluoroethyl)-3-(trifluoromethyl)-1H-pyrazol-4-yl)imidazo[1,2-a]pyrazin-8-yl)amino)-2-ethylbenzamide formate] has an IC90 [1] of 0.246 µM.
CCc1cc(Nc2nccn3c(-c4cn(CC(F)F)nc4C(F)(F)F)cnc23)ccc1C(=O)NCCCNC(=O)[C@H]1C[C@H](N)C1 [Example 542, N-(3-((1r,3r)-3-aminocyclobutane-1-carboxamido)propyl)-4-((3-(1-(2,2-difluoroethyl)-3-(trifluoromethyl)-1H-pyrazol-4-yl)imidazo[1,2-a]pyrazin-8-yl)amino)-2-ethylbenzamide formate] showed an IC90 [1] of 0.196 µM.
CCc1cc(Nc2nccn3c(-c4cn(CC(F)F)nc4C(F)(F)F)cnc23)ccc1C(=O)NCCCNC(=O)[C@@H]1CC[C@H](N)C1 [Example 543, N-(3-((1R,3S)-3-aminocyclopentane-1-carboxamido)propyl)-4-((3-(1-(2,2-difluoroethyl)-3-(trifluoromethyl)-1H-pyrazol-4-yl)imidazo[1,2-a]pyrazin-8-yl)amino)-2-ethylbenzamide formate] was tested, and the IC90 [2] was 0.162 µM.
For CCc1cc(Nc2nccn3c(-c4cn(CC(F)F)nc4C(F)(F)F)cnc23)ccc1C(=O)NCC(=O)N1CCCC(N)C1 (stereo not drawn) [Example 544, N-[2-(3-amino-1-piperidyl)-2-oxo-ethyl]-4-[[3-[1-(2,2-difluoroethyl)-3-(trifluoromethyl)pyrazol-4-yl]imidazo[1,2-a]pyrazin-8-yl]amino]-2-ethyl-benzamide formate], the IC90 [2] was 0.232 µM.
Work on CCc1cc(Nc2nccn3c(-c4cn(CC(F)F)nc4C(F)(F)F)cnc23)ccc1C(=O)NCC(=O)N1CCNC(C)C1 (stereo not drawn) [Example 545, 4-[[3-[1-(2,2-difluoroethyl)-3-(trifluoromethyl)pyrazol-4-yl]imidazo[1,2-a]pyrazin-8-yl]amino]-2-ethyl-N-[2-(3-methylpiperazin-1-yl)-2-oxo-ethyl]benzamide formate] yielded an IC90 [2] of 0.306 µM.
CCc1cc(Nc2nccn3c(-c4cn(CC(F)F)nc4C(F)(F)F)cnc23)ccc1C(=O)NCC(=O)NCC1(O)CNC1 [Example 546, 4-[[3-[1-(2,2-difluoroethyl)-3-(trifluoromethyl)pyrazol-4-yl]imidazo[1,2-a]pyrazin-8-yl]amino]-2-ethyl-N-[2-[(3-hydroxyazetidin-3-yl)methylamino]-2-oxo-ethyl]benzamide formate] showed an IC90 [2] of 0.298 µM.
Molecule CCc1cc(Nc2nccn3c(-c4cn(CC(F)F)nc4C(F)(F)F)cnc23)ccc1C(=O)NCC(=O)NCC1CNC1 [Example 547, N-[2-(azetidin-3-ylmethylamino)-2-oxo-ethyl]-4-[[3-[1-(2,2-difluoroethyl)-3-(trifluoromethyl)pyrazol-4-yl]imidazo[1,2-a]pyrazin-8-yl]amino]-2-ethyl-benzamide formate] has an IC90 [2] of 0.298 µM.
CCc1cc(Nc2nccn3c(-c4cn(CC(F)F)nc4C(F)(F)F)cnc23)ccc1C(=O)NCC(=O)NCC1CCCN1 (stereo not drawn) [Example 548, 4-[[3-[1-(2,2-difluoroethyl)-3-(trifluoromethyl)pyrazol-4-yl]imidazo[1,2-a]pyrazin-8-yl]amino]-2-ethyl-N-[2-oxo-2-(pyrrolidin-2-ylmethylamino)ethyl] benzamide formate] was tested, and the IC90 [1] was 0.267 µM.
CCc1cc(Nc2nccn3c(-c4cn(CC(F)F)nc4C(F)(F)F)cnc23)ccc1C(=O)NCC(=O)NCC1CCNC1 (stereo not drawn) [Example 549, 4-[[3-[1-(2,2-difluoroethyl)-3-(trifluoromethyl)pyrazol-4-yl]imidazo[1,2-a]pyrazin-8-yl]amino]-2-ethyl-N-[2-oxo-2-(pyrrolidin-3-ylmethylamino)ethyl] benzamide formate] showed an IC90 [1] of 0.235 µM.
Work on CCc1cc(Nc2nccn3c(-c4cn(CC(F)F)nc4C(F)(F)F)cnc23)ccc1C(=O)NCC(=O)NCC1CCNCC1 [Example 550, 4-[[3-[1-(2,2-difluoroethyl)-3-(trifluoromethyl)pyrazol-4-yl]imidazo[1,2-a]pyrazin-8-yl]amino]-2-ethyl-N-[2-oxo-2-(4-piperidylmethylamino)ethyl] benzamide formate] yielded an IC90 [1] of 0.261 µM.
With CCc1cc(Nc2nccn3c(-c4cn(CC(F)F)nc4C(F)(F)F)cnc23)ccc1C(=O)NCC(=O)NCC1(O)CCNCC1 [Example 551, 4-[[3-[1-(2,2-difluoroethyl)-3-(trifluoromethyl)pyrazol-4-yl]imidazo[1,2-a]pyrazin-8-yl]amino]-2-ethyl-N-[2-[(4-hydroxy-4-piperidyl)methylamino]-2-oxo-ethyl]benzamide formate] the IC90 [2] was 0.357 µM.
In the case of CCc1cc(Nc2nccn3c(-c4cn(CC(F)F)nc4C(F)F)cnc23)ccc1C(=O)N[C@H]1C[C@@H](NC(=O)[C@@H]2C[C@@H](O)CN2)C1 [Example 552, (2S,4R)-N-((1s,3R)-3-(4-((3-(1-(2,2-difluoroethyl)-3-(difluoromethyl)-1H-pyrazol-4-yl)imidazo[1,2-a]pyrazin-8-yl)amino)-2-ethylbenzamido)cyclobutyl)-4-hydroxypyrrolidine-2-carboxamide], the IC90 [1] is reported as 0.489 µM.
CCc1cc(Nc2nccn3c(-c4c[nH]nc4C(F)(F)F)cnc23)ccc1C(=O)NCCNC(=O)C1CCNCC1 [Example 553, N-(2-(2-ethyl-4-((3-(3-(trifluoromethyl)-1H-pyrazol-4-yl)imidazo[1,2-a]pyrazin-8-yl)amino)benzamido)ethyl) piperidine-4-carboxamide formate] was tested, and the IC90 [2] was 0.682 µM.
Work on CCc1cc(Nc2nccn3c(-c4cn(CC(F)F)nc4C(F)(F)F)cnc23)ccc1C(=O)NCCNC(=O)C1CCNCC1 [Example 554, N-(2-(4-((3-(1-(2,2-difluoroethyl)-3-(trifluoromethyl)-1H-pyrazol-4-yl)imidazo[1,2-a]pyrazin-8-yl)amino)-2-ethylbenzamido)ethyl) piperidine-4-carboxamide formate] yielded an IC90 [2] of 0.198 µM.
Work on CCc1cc(Nc2nccn3c(-c4cn(CC(F)F)nc4C(F)(F)F)cnc23)ccc1C(=O)N1CCC2(CNC2)C1 [Example 555, (4-((3-(1-(2,2-difluoroethyl)-3-(trifluoromethyl)-1H-pyrazol-4-yl)imidazo[1,2-a]pyrazin-8-yl)amino)-2-ethylphenyl)(2,6-diazaspiro[3.4]octan-6-yl)methanone formate] yielded an IC90 [2] of 0.977 µM.
With CCc1cc(Nc2nccn3c(-c4cn(CC(F)F)nc4C(F)(F)F)cnc23)ccc1C(=O)N1CC(N)C1 [Example 556, (3-aminoazetidin-1-yl)(4-((3-(1-(2,2-difluoroethyl)-3-(trifluoromethyl)-1H-pyrazol-4-yl)imidazo[1,2-a]pyrazin-8-yl)amino)-2-ethylphenyl)methanone formate] the IC90 [2] was 0.675 µM.
CCc1cc(Nc2nccn3c(-c4cn(CC(F)F)nc4C(F)(F)F)cnc23)ccc1C(=O)NCC1CNC1 [Example 557, N-(azetidin-3-ylmethyl)-4-((3-(1-(2,2-difluoroethyl)-3-(trifluoromethyl)-1H-pyrazol-4-yl)imidazo[1,2-a]pyrazin-8-yl)amino)-2-ethylbenzamide formate] gave an IC90 [2] of 0.144 µM.
In the case of CCc1cc(Nc2nccn3c(-c4cn(CC(F)F)nc4C(F)(F)F)cnc23)ccc1C(=O)NCC(CN)CCl (stereo not drawn) [Example 558, N-(3-amino-2-(chloromethyl)propyl)-4-((3-(1-(2,2-difluoroethyl)-3-(trifluoromethyl)-1H-pyrazol-4-yl)imidazo[1,2-a]pyrazin-8-yl)amino)-2-ethylbenzamide formate], the IC90 [2] is reported as 0.174 µM.
CCc1cc(Nc2nccn3c(-c4cn(CC(F)F)nc4C(F)(F)F)cnc23)ccc1C(=O)N1CCC12CNC2 [Example 559, (4-((3-(1-(2,2-difluoroethyl)-3-(trifluoromethyl)-1H-pyrazol-4-yl)imidazo[1,2-a]pyrazin-8-yl)amino)-2-ethylphenyl)(1,6-diazaspiro[3.3]heptan-1-yl)methanone formate] showed an IC90 [2] of 0.398 µM.
With CCc1cc(Nc2nccn3c(-c4cn(CC(F)F)nc4C(F)(F)F)cnc23)ccc1C(=O)N1CCC1(CN)CCl (stereo not drawn) [Example 560, (2-(aminomethyl)-2-(chloromethyl)azetidin-1-yl)(4-((3-(1-(2,2-difluoroethyl)-3-(trifluoromethyl)-1H-pyrazol-4-yl)imidazo[1,2-a]pyrazin-8-yl)amino)-2-ethylphenyl) methanone formate] the IC90 [1] was 0.836 µM.
CCc1cc(Nc2nccn3c(-c4cn(CC(F)F)nc4C(F)(F)F)cnc23)ccc1C(=O)N1CC2CC1CN2 (stereo not drawn) [Example 561, (2,5-diazabicyclo [2.2.1]heptan-2-yl)(4-((3-(1(2,2-difluoroethyl)-3-(trifluoromethyl)-1H-pyrazol-4-yl)imidazo[1,2-a]pyrazin-8-yl)amino)-2-ethylphenyl) methanone formate] gave an IC90 [2] of 0.909 µM.
CCc1cc(Nc2nccn3c(-c4cn(CC(F)F)nc4C(F)(F)F)cnc23)ccc1C(=O)NC1C2CNCC21 (stereo not drawn) [Example 562, N-(3-azabicyclo[3.1.0]hexan-6-yl)-4-((3-(1-(2,2-difluoroethyl)-3-(trifluoromethyl)-1H-pyrazol-4-yl)imidazo[1,2-a]pyrazin-8-yl)amino)-2-ethylbenzamide formate] gave an IC90 [2] of 0.305 µM.

Reference: patent publication US20230203043A1, “NOVEL IMIDAZOPYRAZINE DERIVATIVES” (Hoffmann-La Roche Inc., priority 2020, published 2023)
